# Source: patent publication US20050112128A1, “Inhibition of protein kinase c-mu (PKD) as a treatment for cardiac hypertrophy and heart failure” (Myogen, Inc. and Board of Regents, The University of Texas …, priority 2003, published 2005)
# Entries after “also recorded” stand apart in the source; their conditions may differ.
# Columns and labels:
# NRVMs = experiment: ANF immunostaining of cardiomyocytes (hypertrophy marker); format: cell-based, rat; conditions: PE 20 μM or PMA 100 nM, 24 hrs
# Protocol: FIGS. 3A-C—Inhibition of PKC-mediated cardiac hypertrophy by signalresistant HDAC5. NRVMs were cultured on 6-well dishes and infected with adenoviruses (MOI=10) encoding a LacZ control (Ad-LacZ) or FLAG-tagged HDAC5 harboring alanines in place of serines 259 and 498 (Ad-HDAC5 S/A), which are required for 14-3-3-mediated nuclear export. Cells were treated with PE (20 μM) or PMA (100 nM) for 24 hrs prior to analysis. FIG. 3A. Cells were fixed and sarcomeres visualized by indirect immunofluorescence with primary antibody specific for α-actinin and fluorescein-conjugated secondary antibody. FIG. 3B. ANF protein was detected by indirect immunofluorescence with anti-ANF primary antibody. FIG. 3C. Total RNA was harvested from cells and subjected to dot blot analysis with radiolabeled oligonucleotides specific for the indicated transcripts. RNA levels were quantified using a phosphorimager and are depicted as -fold change relative to amounts in unstimulated cells infected with Ad-LacZ. Values were normalized to GAPDH controls.
# Cell culture and transfection assays. COS cells were maintained in DMEM with FBS (10%), L-glutamine (2 mM), and penicillin-streptomycin. Transfection of COS cells was performed with Fugene 6 (Roche Molecular Biochemicals) according to manufacturer's instructions. […]
# [1] = system: nuclear export of HDAC5 in COS cells; experiment: GFP-HDAC5 nuclear export in transfected COS cells (fluorescence microscopy); format: cell-based
# Protocol: (§1) FIGS. 1A-D—PKC-dependent nuclear export of HDAC5. FIG. 1A. COS cells were cultured on 6-well dishes, transfected with a GFP-HDAC5 expression vector (1 μg) and stimulated with the indicated compounds, as described in Materials and Methods. Sixty minutes after addition of compounds, GFP-HDAC5 distribution was determined by fluorescence microscopy. […] FIG. 1B. COS cells were transfected with expression vectors encoding FLAG-tagged versions of either HDAC5 or an HDAC5 mutant harboring alanines in place of serines 259 and 498 (HDAC5 S259/498A) (1 μg each). Cells were stimulated with PMA for 60 min and HDAC5 distribution was determined by indirect immunofluorescence with anti-FLAG primary antibody and fluorecein-conjugated secondary antibody. HDAC5 259/498A is refractory to PMA stimulation. FIG. 1C. COS cells transfected with GFPHDAC5 encoding expression vector (1 μg) and stimulated with PMA for the indicated times. FIG. 1D. COS cells were transiently transfected with expression vectors encoding FLAG-tagged versions of HDAC5 or HDAC5 S259/498A (1 μg each). Cells were pretreated with the PKC inhibitor bisindolylmaleimide (Bis I; 10 μM) for 30 minutes and stimulated with PMA for 30 min, as indicated. Association of FLAG-HDAC5 with endogenous 14-3-3 was detected by sequential immunoprecipitation and immunoblotting.
# Cell culture and transfection assays. COS cells were maintained in DMEM with FBS (10%), L-glutamine (2 mM), and penicillin-streptomycin. Transfection of COS cells was performed with Fugene 6 (Roche Molecular Biochemicals) according to manufacturer's instructions. For HDAC localization experiments, cells were treated 16-24 hours after transfection with PMA (100 nM), ionomycin […], 8-Br-cAMP (1 mM), pCPT-GMP (1 mM), or anisomycin (1 mM). Where noted, specific protein kinase inhibitors were added 30 min prior to the addition of any chemical stimulus. GFP-HDAC5 was visualized with standard fluorescent microscopic techniques. For indirect immunofluorescence of FLAG-HDAC5, COS cells were seeded on glass coverslips, transfected, and treated as above. After specific treatment, cells were fixed with buffered formalin (10%) and stained in PBS containing BSA (3%) and Nonidet P-40 (0.1%). Flag M2 antibody (Sigma) was used at a concentration of 1:200. Secondary fluoresceine-conjugated antibody (Vector Laboratories) was also used at a concentration of 1:200. Staining of cardiomyocytes for sarcomeres and atrial natriuretic factor (ANF) was performed by indirect immunofluorescence detection as above with antibodies directed against sarcomeric α-actinin (Sigma) and ANF (Peninsula Laboratories), respectively.
# [2] = system: association of 14-3-3 with HDAC5; experiment: Co-immunoprecipitation of FLAG-HDAC5 with endogenous 14-3-3 in COS cells; format: cell-based; conditions: FLAG-HDAC5, PMA 30 min
# Protocol: as §1, with “COS cells were transiently transfected with expression vectors encoding FLAG-tagged versions of HDAC5 or HDAC5 S259/498A (1 μg each). Cells were pretreated with the PKC inhibitor bisindolylmaleimide (Bis I; 10 μM) for 30 minutes and stimulated with PMA for 30 min, as indicated.” left out
# Co-immunoprecipitation assays. […] Associated PKD was detected by immunoblotting with rabbit polyclonal antibodies against either PKD-1, PKD-1 phosphorylated at serines 744 and 748, or PKD-1 phosphorylated at serine 916 (Cell Signaling Technologies) were employed at 1:1000 dilutions.
# HDAC5-bound PKD = format: biochemical, rat; conditions: NRVMs infected with Ad-FLAG-HDAC5; PMA 30 min
# PKD = experiment: In vitro kinase assay with FLAG-HDAC5 immunoprecipitated from COS cells co-transfected with PKD; format: cell-based; conditions: PMA 30 min
# From the text: FIGS. 5A-E—Protein kinase D is an HDAC5 kinase. FIG. 5A. Amino acid sequences surrounding the regulatory phosphorylation sites of class II HDACs. NLS: nuclear localization signal; HDAC domain: deacetylase catalytic domain. The consensus target site for PKD is shown. Leucine at position −5 relative the phosphorylation site is required for optimal PKD-directed phosphorylation of other proteins. FIG. 5B. COS cells were transfected with an expression vector encoding GFP fused to HDAC5 harboring glycines in place of leucines 254 and 493 (L254/493G). Twenty-four hrs post-transfection, cells were left untreated (control) or stimulated with PMA for 30 minutes. FIG. 5C. […] HDAC5 localization was determined 24 hrs post-transfection. FIG. 5D. […] Twenty-four hrs post-transfection, cells were treated with PMA or vehicle control for 30 min. FLAG-HDAC5 was immunoprecipitated from whole-cell protein lysates and either incorporated into an in vitro kinase assay (IVK) or resolved by SDS-PAGE for western blot analysis to detect associated PKD, as indicated. Phosphorylated HDAC5 was resolved by SDS-PAGE and detected by autoradiography. FIG. 5E. Mammalian two-hybrid assay. […]
structure (smiles),measurement,setting,value
"CCCCCCCCCCCCCC(=O)O[C@@H]1[C@@H](C)[C@@]2(O)[C@@H](C=C(CO)C[C@]3(O)C(=O)C(C)=C[C@@H]23)[C@@H]2C(C)(C)[C@]12OC(C)=O [PMA, Phorbol 12-myristate 13-acetate]",ANF protein expression,NRVMs,prominent perinuclear ANF protein expression
same,stimulation of nuclear export of GFP-HDAC5,"[1]; COS cells transfected with GFP-HDAC5, 60 min after addition of compounds",complete relocalization of GFP-HDAC5 from the nucleus to the cytoplasm; also recorded: stimulated nuclear export of GFP-HDAC5; also recorded: more potent stimulator of export than ionomycin
same,time to complete HDAC5 nuclear export following addition of PMA,"[1]; COS cells, GFP-HDAC5",≤ 30 min
same,time to initiation of HDAC5 nuclear export following addition of PMA,"[1]; COS cells, GFP-HDAC5",≤ 15 min
same,association of 14-3-3 with HDAC5,[2],enhanced
same,HDAC5 phosphorylation after treatment of cells with PMA,HDAC5-bound PKD,Increased HDAC5 phosphorylation
same,"HDAC5 phosphorylation after PMA, activated PKD S/E co-transfected",PKD; FLAG-HDAC5 + PKD S/E,enhanced phosphorylation of HDAC5
same,"HDAC5 phosphorylation after PMA, wild-type PKD co-transfected",PKD; FLAG-HDAC5 + PKD,increased the degree of HDAC5 phosphorylation
